Structures can show the parent of a compound that is named as a salt. Some results are limits rather than exact numbers.

The target in the experiment is T1, full-length USP7 (Homo sapiens, UniProt Q93009).
T1 construct: A 45 μl reaction volume containing full-length USP7 (0.5-1.0 nM)
T1 sequence (Q93009 whole entry): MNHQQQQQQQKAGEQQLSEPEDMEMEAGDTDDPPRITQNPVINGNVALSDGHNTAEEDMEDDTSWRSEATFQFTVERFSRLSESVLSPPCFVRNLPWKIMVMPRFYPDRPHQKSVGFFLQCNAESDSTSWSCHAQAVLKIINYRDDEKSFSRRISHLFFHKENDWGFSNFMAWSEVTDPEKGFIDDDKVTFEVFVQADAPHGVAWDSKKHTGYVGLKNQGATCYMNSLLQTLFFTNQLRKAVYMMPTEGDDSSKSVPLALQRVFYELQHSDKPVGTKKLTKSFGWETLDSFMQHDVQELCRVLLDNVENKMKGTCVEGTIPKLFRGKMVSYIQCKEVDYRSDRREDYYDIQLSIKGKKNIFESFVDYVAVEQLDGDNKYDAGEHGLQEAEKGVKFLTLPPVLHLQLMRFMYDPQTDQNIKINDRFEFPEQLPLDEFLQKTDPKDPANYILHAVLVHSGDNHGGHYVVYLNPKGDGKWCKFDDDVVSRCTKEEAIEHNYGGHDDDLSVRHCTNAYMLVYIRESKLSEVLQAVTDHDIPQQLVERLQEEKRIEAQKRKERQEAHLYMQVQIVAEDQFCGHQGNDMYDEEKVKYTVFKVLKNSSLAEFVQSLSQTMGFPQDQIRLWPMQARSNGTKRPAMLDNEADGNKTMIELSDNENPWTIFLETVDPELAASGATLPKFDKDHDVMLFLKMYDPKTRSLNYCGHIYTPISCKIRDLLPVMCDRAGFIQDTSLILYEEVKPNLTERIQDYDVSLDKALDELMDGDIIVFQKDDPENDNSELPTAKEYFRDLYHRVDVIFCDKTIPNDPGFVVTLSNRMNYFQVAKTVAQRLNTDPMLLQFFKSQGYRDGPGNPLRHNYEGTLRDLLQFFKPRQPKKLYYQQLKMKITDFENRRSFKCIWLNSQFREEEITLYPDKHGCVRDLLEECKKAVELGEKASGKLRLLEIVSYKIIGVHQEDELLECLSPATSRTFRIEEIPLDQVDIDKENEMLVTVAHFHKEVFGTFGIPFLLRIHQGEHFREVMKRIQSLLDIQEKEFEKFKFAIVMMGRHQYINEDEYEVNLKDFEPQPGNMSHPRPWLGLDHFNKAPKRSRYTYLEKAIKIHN
Put plainly: Enzymatic assay to determine IC50 of USP7 inhibitors (Ubiquitin-Rhodamine 110 cleavage). Type of experiment: biochemical. The following applies: full-length USP7 0.5-1.0 nM, 0.5 μM Ubiquitin-Rhodamine 110, 30-60 min at 25° C. The protocol: Enzymatic Assay to Determine IC50 of USP7 Inhibitors
The IC50 is the concentration of an inhibitor where the measured enzyme activity is reduced by half. In the case of USP7 deubiquitinase, the IC50 of an USP7 inhibitor is the molar concentration of the compound that inhibits 50% of the activity observed in a USP7-mediated-ubiquitin-rhodamine cleavage assay. For the inhibitors disclosed herein, their potency was measured using the following method.
A 45 μl reaction volume containing full-length USP7 (0.5-1.0 nM) in 50 mM HEPES pH 7.5, 150 mM NaCl, 2 mM DTT, 1 mg/ml BSA and 0.05% Tween20 was assembled in wells of 96 well half area black flat bottom plates. Test compounds were first dissolved to 30 mM stocks in DMSO and subsequently introduced to enzyme 15 min after USP7 incubation with DTT at room temperature. The enzymatic reaction was started by adding 0.5 μM Ubiquitin-Rhodamine 110 (final concentration) and allowed to proceed for 30-60 min at 25° C., 250 RPM shaking before Rhodamine fluorescence (485 nm excitation/535 nm emission) was measured using Tecan Spark M10 plate reader. The IC50 values were determined by data fitting to variable slope model four-parameter dose-response curve using GraphPad 7.05.
Regarding `Cc1cc(Cl)cc(-c2ncnn3cc(CN4C(=O)C5C(C4=O)C5(C)C)cc23)c1O[C@@H]1CNC[C@@H]1F` (stereo partly drawn) [Example 14, 3-((4-(5-chloro-2-(((3R,4S)-4-fluoropyrrolidin-3-yl)oxy)-3-methylphenyl)pyrrolo[2,1-f][1,2,4]triazin-6-yl)methyl)-6,6-dimethyl-3-azabicyclo[3.1.0]hexane-2,4-dione hydrochloride], the IC50 was < 500 nM.

On to `Cc1cc(Cl)cc(-c2ncnn3cc(Cn4c(=O)ccn(CC(F)F)c4=O)cc23)c1CC1CNC[C@H](C)O1` (stereo partly drawn) [Example 95, 3-((4-(5-chloro-3-methyl-2-(((6S)-6-methylmorpholin-2-yl)methyl)phenyl)pyrrolo[2,1-f][1,2,4]triazin-6-yl)methyl)-1-(2,2-difluoroethyl)pyrimidine-2,4(1H,3H)-dione hydrochloride], for which the IC50 was < 500 nM.

`Cc1cc(Cl)cc(-c2ncnn3cc(CN4C(=O)C5C(C4=O)C5(C)C)c(C)c23)c1C[C@@H]1CNCCO1` (stereo partly drawn) [Example 13, 3-((4-(5-chloro-3-methyl-2-(((R)-morpholin-2-yl)methyl)phenyl)-5-methylpyrrolo[2,1-f][1,2,4]triazin-6-yl)methyl)-6,6-dimethyl-3-azabicyclo[3.1.0]hexane-2,4-dione hydrochloride] displayed an IC50 of 500 to 1000 nM.

For the compound `Cc1cc(Cl)cc(-c2ncnn3cc(Cn4c(=O)ccn(C5CC5)c4=O)cc23)c1C[C@@H]1CNCCO1` (single isomer, unassigned) [Example 107, hydrochloride], the IC50 was < 500 nM.

Turning to `Cc1cc(Cl)cc(-c2ncnn3cc(Cn4c(=O)ccn(C(C)C)c4=O)cc23)c1C[C@@H]1CNCCO1` (single isomer, unassigned) [Example 89, hydrochloride], the IC50 is < 500 nM.

Regarding `Cc1cc(Cl)cc(-c2ncnn3cc(CN4C(=O)C5C(C4=O)C5(C)C)cc23)c1O[C@H]1CCCNC1` (stereo partly drawn) [Example 1, 3-((4-(5-chloro-3-methyl-2-(((S)-piperidin-3-yl)oxy)phenyl)pyrrolo[2,1-f][1,2,4]triazin-6-yl)methyl)-6,6-dimethyl-3-azabicyclo[3.1.0]hexane-2,4-dione hydrochloride], the IC50 is < 500 nM.

Consider `C[C@@H]1CN(C2CCNC2)c2c(cc(Cl)cc2-c2ncnn3cc(CN4C(=O)C5C(C4=O)C5(C)C)cc23)O1` (stereo partly drawn) [Example 93, 3-((4-((2R)-7-chloro-2-methyl-4-(pyrrolidin-3-yl)-3,4-dihydro-2H-benzo[b][1,4]oxazin-5-yl)pyrrolo[2,1-f][1,2,4]triazin-6-yl)methyl)-6,6-dimethyl-3-azabicyclo[3.1.0]hexane-2,4-dione hydrochloride], for which the IC50 is < 500 nM.

Regarding `Cc1cc(Cl)cc(-c2ncnn3cc(CN4C(=O)C5C(C4=O)C5(C)C)cc23)c1OCC1(C)CCNCC1` (centres unmarked) [Example 58, 3-((4-(5-chloro-3-methyl-2-((4-methylpiperidin-4-yl)methoxy)phenyl)pyrrolo[2,1-f][1,2,4]triazin-6-yl)methyl)-6,6-dimethyl-3-azabicyclo[3.1.0]hexane-2,4-dione hydrochloride], the IC50 is < 500 nM.

On to `CC1(C)C2C(=O)N(Cc3cc4c(-c5cc([N+](=O)[O-])cc6ccn(C[C@@H]7CNCCO7)c56)ncnn4c3)C(=O)C21` (stereo partly drawn) [Example 32, 6,6-dimethyl-3-((4-(1-(((S)-morpholin-2-yl)methyl)-5-nitro-1H-indol-7-yl)pyrrolo[2,1-f][1,2,4]triazin-6-yl)methyl)-3-azabicyclo[3.1.0]hexane-2,4-dione 2,2,2-trifluoroacetate], for which the IC50 is < 500 nM.

Consider `Cc1cc(Cl)cc(-c2ncnn3cc(Cn4c(=O)ccn(C(C)C)c4=O)cc23)c1CC1CNC[C@H](C)O1` (stereo partly drawn) [Example 111, 3-((4-(5-chloro-3-methyl-2-(((6S)-6-methylmorpholin-2-yl)methyl)phenyl)pyrrolo[2,1-f][1,2,4]triazin-6-yl)methyl)-1-isopropylpyrimidine-2,4(1H,3H)-dione hydrochloride], for which the IC50 is < 500 nM.

In the case of `Cc1cc(Cl)cc(-c2ncnn3cc(CN4C(=O)C5C(C4=O)C5(C)C)cc23)c1CC1CNCC2(CC2)O1` (racemic) [Example 46, 3-((4-(2-((4-oxa-7-azaspiro[2.5]octan-5-yl)methyl)-5-chloro-3-methylphenyl)pyrrolo[2,1-f][1,2,4]triazin-6-yl)methyl)-6,6-dimethyl-3-azabicyclo[3.1.0]hexane-2,4-dione hydrochloride], the IC50 was < 500 nM.

Turning to `Cc1cc(Cl)cc(-c2ncnn3cc(Cn4c(=O)ccn(C)c4=O)cc23)c1CC1CNC[C@H](C)O1` (stereo partly drawn) [Example 59, 3-((4-(5-chloro-3-methyl-2-(((6S)-6-methylmorpholin-2-yl)methyl)phenyl)pyrrolo[2,1-f][1,2,4]triazin-6-yl)methyl)-1-methylpyrimidine-2,4(1H,3H)-dione hydrochloride], the IC50 is < 500 nM.

In the case of `Cc1cc(Cl)cc(-c2ncnn3cc(CN4C(=O)C5C(C4=O)C5(C)C)cc23)c1NCC1(F)CCNCC1` (centres unmarked) [Example 80, 3-((4-(5-chloro-2-(((4-fluoropiperidin-4-yl)methyl)amino)-3-methylphenyl)pyrrolo[2,1-f][1,2,4]triazin-6-yl)methyl)-6,6-dimethyl-3-azabicyclo[3.1.0]hexane-2,4-dione dihydrochloride], the IC50 was < 500 nM.

On to `Cc1cc(Cl)cc(-c2ncnn3cc(Cn4c(=O)ccn(CC(F)(F)F)c4=O)cc23)c1CC1CNCCO1` (racemic) [Example 68, 3-((4-(5-chloro-3-methyl-2-(morpholin-2-ylmethyl)phenyl)pyrrolo[2,1-f][1,2,4]triazin-6-yl)methyl)-1-(2,2,2-trifluoroethyl)pyrimidine-2,4(1H,3H)-dione hydrochloride], for which the IC50 was < 500 nM.

`Cn1ccc(=O)n(Cc2cc3c(-c4cc(Cl)cc5ccn(CC6(F)CCNCC6)c45)ncnn3c2)c1=O` [Example 61, 3-((4-(5-chloro-1-((4-fluoropiperidin-4-yl)methyl)-1H-indol-7-yl)pyrrolo[2,1-f][1,2,4]triazin-6-yl)methyl)-1-methylpyrimidine-2,4(1H,3H)-dione hydrochloride]: the IC50 is < 500 nM.

For the compound `Cc1cc(Cl)cc(-c2ncnn3cc(Cn4c(=O)ccn(C)c4=O)cc23)c1CC1CN[C@@H](C)CO1` (single isomer, unassigned) [Example 110, hydrochloride], the IC50 was < 500 nM.

`[2H]C([2H])([2H])n1ccc(=O)n(Cc2cc3c(-c4cc(Cl)cc(C)c4C[C@@H]4CNCCO4)ncnn3c2)c1=O` (single isomer, unassigned) [Example 105, hydrochloride]: the IC50 is < 500 nM.

The record behind these values is patent US20240150362A1, “Substituted Pyrrolotriazines” (Molecure S.A., priority 2022, published 2024).
